# Data: US20130236416A1, “SURFACE MODIFIED COLLOIDAL PARTICLES” (CLEMSON UNIVERSITY, priority 2012, published 2013)
# Values joined by “and” are separate entries in the source; they are usually repeats but may differ in a detail not shown here. Equal values may be shown once. Read-outs that look alike come from different tables or passages of the source.
# How the values were obtained:
# [1] = Relative fluorescence quantum yield versus reference dye HITCI in methanol; type: physicochemical
# Protocol: Absorption spectra were taken using a Perkin-Elmer Lambda 900 UV/VIS/NIR spectrophotometer. Photoluminescence (PL) spectra were collected using a Thermo Oriel xenon arc lamp (Thermo Oriel 66 902) mated with a Thermo Oriel Cornerstone 7 400 1/8m monochromator (Thermo Oriel 7400) and a Horiba Jobin-Yvon MicroHR spectrometer coupled to a Synapse CCD detector. Quantum yields (φ) of the dyes and modified particles were determined relative to the reference dye 1,10,3,3,30,30-hexamethylindotricarbocyanine iodide (HITCI) in methanol, which has a fluorescence quantum yield of φref=0.12, [51,20] employing established procedures.
# P. resinovorans CA10 = assay: Proliferation of P. resinovorans CA10 on carbazole-based media; type: cell-based, Pseudomonas resinovorans CA10; settings: 96 hour incubation
# Protocol: Control growth performed with glucose medium (Δ).
# The bioavailability of the hydrophobic metabolites is also critical to understanding metabolic enzymes that bind to them[40]. […] FIG. 3 presents the proliferation of P. resinovorans CA10 with both 9H-carbazole and PA/AC particle based media during a 96 hour incubation.
# CARDO complex = biological target: T1, CARDO complex (Metapseudomonas resinovorans, UniProt Q8G8B6); assay: Temperature dependence of 9H-carbazole conversion by purified CARDO complex; type: biochemical, Pseudomonas resinovorans CA10; settings: 5° C.
# T1 construct: (HIS)6 (C); made in house; host or cells: Escherichia coli BL21(DE3) Rosetta
# T1 sequence (Q8G8B6 whole entry, one chain of several): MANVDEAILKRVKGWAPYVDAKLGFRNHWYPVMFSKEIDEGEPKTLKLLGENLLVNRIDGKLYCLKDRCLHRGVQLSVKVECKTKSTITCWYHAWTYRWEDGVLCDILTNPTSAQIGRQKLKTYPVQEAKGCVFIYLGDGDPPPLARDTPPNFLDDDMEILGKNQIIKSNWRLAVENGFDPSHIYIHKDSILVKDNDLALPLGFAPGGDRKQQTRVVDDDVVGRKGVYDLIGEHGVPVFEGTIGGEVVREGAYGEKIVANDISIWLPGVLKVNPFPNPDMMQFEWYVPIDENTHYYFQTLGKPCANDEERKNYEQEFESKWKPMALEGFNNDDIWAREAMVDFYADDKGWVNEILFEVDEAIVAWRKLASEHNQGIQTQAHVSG
# Protocol: Purified CARDO complex activity was monitored using a modified enzymatic assay previously described [H. Nojiri, et al. Structure of the terminal oxygenase component of angular dioxygenase, carbazole 1,9a-dioxygenase. Journal of Molecular Biology, 351(2):355-370, 2005.]. The purified enzymes CARDO-F, CARDO-O and CARDO-R were incubated in 20 μL Buffer D (25 mM Tris-HCl pH 7.5 and 1 mM NADH) containing 1 mM carbazole dissolved in DMSO at varying temperatures from 30° C. to 5° C. An aliquot was removed from the reaction at the indicated times and the absorbance of the reaction was determined with a NanoDrop spectrophotometer (Thermo Scientific) at 295 nm.
# [2] = cited from earlier work
smiles,measurement,setting,value
"CC1(C)C(/C=C/C=C/C=C/C=C2/N(CCCN=[N+]=[N-])c3ccc4ccccc4c3C2(C)C)=[N+](CCCCS(=O)(=O)[O-])c2ccc3ccccc3c21 [azICG, 4-(2-(1E,3E,5E,7E)-7-[3-(3-Azidopropyl)-1,1-Dimethyl-1,3-Dihydro-2H-Benzo[e]Indol-2-Ylidene]-1,3,5-Heptatrienyl-1,1-Dimethyl-1H-Benzo[e]Indolium-3-yl)-1-Butanesulfonate]",relative fluorescence quantum yield φ,[1],0.044±0.004 and 0.044
c1ccc2c(c1)[nH]c1ccccc12 [9H-carbazole],growth of P. resinovorans CA10 on the substrate-based medium,P. resinovorans CA10,consistent growth
same,conversion of carbazole by purified CARDO complex,CARDO complex,significantly retarded
"CC1(C)C(/C=C/C=C/C=C/C=C2\N(CCCCS(=O)(=O)O)c3ccc4ccccc4c3C2(C)C)=[N+](CCCCS(=O)(=O)[O-])c2ccc3ccccc3c21 [ICG, Indocyanine green]",relative fluorescence quantum yield φ,[1],0.036±0.002
same,yield of triplet formation through S1-T1 intersystem-crossing,[2]; free ICG in an aqueous albumin solution,11%
same,yield of triplet formation through S1-T1 intersystem-crossing,[2]; free ICG in water,14%
same,fluorescence quantum yield of free ICG in water,"[2]; water, ICG concentration ca. 2.7×10^−3 mol·dm^−3",ca. 4×10^−5
"CN1C(=CC=CC=CC=CC2=[N+](C)c3ccccc3C2(C)C)C(C)(C)c2ccccc21.[I-] [HITCI, 1,10,3,3,30,30-hexamethylindotricarbocyanine iodide]",fluorescence quantum yield φref,[2]; reference dye in methanol,0.12
